Results from publication PMC9848351, “Discovery of new pyridine-quinoline hybrids as competitive and non-competitive PIM-1 kinase inhibitors with apoptosis induction and caspase 3/7 activation capabilities” (Journal of Enzyme Inhibition and Medicinal Chemistry, 2023).

Assays:
[1] = test system: normal human lung fibroblast Wi-38 cell line; experiment: MTT cytotoxicity on normal cells; format: cell-based; conditions: Homo sapiens; Wi-38, MTT; read-out: IC50 on human lung fibroblasts (Wi-38)
How it was run: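 Wi-38 fibroblasts in DMEM with 10% FBS were seeded at 5x10^3 cells/well, left 24 h to attach, then exposed to serial compound concentrations for 72 h at 37 °C, 5% CO2. MTT was added for 3 h, formazan dissolved in DMSO and absorbance read at 570 nm. IC50 and EC100 (safe dose) were estimated from the concentration series.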

[2] = test system: liver cancer cell line (HepG-2); experiment: MTT anticancer activity, HepG-2; format: cell-based, human; conditions: Homo sapiens, HepG2; HepG-2, 72 h, MTT; mean ± SEM
How it was run: (§1)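 Cells seeded at 5x10^3/well (Caco-2 in DMEM, others in RPMI-1640, 10% FBS) and exposed to serial compound concentrations for 72 h at 37 °C, 5% CO2, starting 24 h after seeding. MTT (3 h, 37 °C) read at 570 nm after DMSO solubilisation; IC50 calculated from viability.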

[3] = test system: myeloid leukaemia cell line (NFS-60); experiment: MTT anticancer activity, NFS-60; format: cell-based; conditions: NFS-60, 72 h, MTT; mean ± SEM
How it was run: as §1

[4] = test system: HepG-2; experiment: Flow cytometric annexin V/PI analysis of apoptosis, HepG-2; format: cell-based, human; conditions: IC50 of compound, 72 h, mean ± SEM
[5] = test system: Caco-2; experiment: Flow cytometric annexin V/PI analysis of apoptosis, Caco-2; format: cell-based; conditions: IC50 of compound, 72 h, mean ± SEM
Description: (§2) The apoptosis-dependent […] was determined by quantification of annexin-stained apoptotic cells using the FITC signal detector (FL1) against the phycoerythrin emission signal detector (FL2) (Supplementary Page S55). […]
(§3) MTT method was used for assaying cell viability 25. Twenty microliters of 5 mg/ml MTT (Sigma, USA) was added to each well and the plate was incubated at 37 °C for 3 h. Then MTT solution was removed, 100 µl DMSO was used and the absorbance of each well was measured with a microplate reader ( BMG LabTech, […]
(§4) Germany) at 570 nm. […]
(§5) Graphpad Instat software.
(§6) Determination of the anticancer activity
Anticancer effect of the above-mentioned compounds was evaluated using four human […]
cancer cell lines. […]
All cancer cells (5x10^3 cells/well) were seeded in sterile
96-well plates. After 24h, serial concentrations of the tested compounds and Dox were incubated with four cancer cell lines for 72 h at 37 °C in 5% CO2 incubator. MTT method was done as described above. The Graphpad Instat software was used for calculating the half maximal inhibitory concentration (IC50) values. […]
(§7) Flow cytometric analysis of apoptosis
(§8) Caco-2, PC-3 and NFS-60 cell lines. After trypsinization, the untreated and treated cells were incubated with annexin V/PI for 15 min. Then cells were fixed and incubated with streptavidin-fluorescein (5 µg/mL) for 15 min. The apoptosis-dependent anticancer effect was determined by quantification of annexin-stained apoptotic cells using the FITC signal detector (FL1) against the phycoerythrin emission signal detector (FL2). […]

[6] = test system: PC-3; experiment: Flow cytometric annexin V/PI analysis of apoptosis, PC-3; format: cell-based, human; conditions: IC50 of compound, 72 h, mean ± SEM
Description: as §2
(§9) MTT method was used for assaying cell viability 25. Twenty microliters of 5 mg/ml MTT (Sigma, USA) was added to each well and the plate was incubated at […]
(§10) 37 °C for 3 h. […]
as §5, §6
(§11) Anticancer effect of the above-mentioned compounds was evaluated using four human cancer cell lines. Colon cancer cells (Caco-2) were maintained in DMEM (Lonza, USA) containing 10% FBS while myeloid leukemia cell line (NFS-60), liver cancer cell line (HepG-2) and prostate cancer cell line (PC-3) were cultured in RPMI-1640 (Lonza, USA) supplemented with 10% FBS. All cancer cells (5x10^3 cells/well) were seeded in sterile 96-well plates. After 24h, serial concentrations of the tested compounds and Dox were incubated with four cancer cell lines for 72 h at 37 °C in 5% CO2 incubator. MTT method was done as described above. The Graphpad Instat software was used for calculating the half maximal inhibitory concentration (IC50) values. […]
as §7, §8

[7] = test system: NFS-60; experiment: Flow cytometric annexin V/PI analysis of apoptosis, NFS-60; format: cell-based, human; conditions: IC50 of compound, 72 h, mean ± SEM
Description: as §2, §9, §10, §5, §6, §11, §7, §8

[8] = test system: HepG-2, Caco-2, NFS-60, and PC-3 cancer cell lines; format: cell-based, human
Description: as §2, §3, §4, §5, §6
Anticancer effect of the above-mentioned compounds was evaluated using four human cancer cell lines. Colon cancer cells (Caco-2) were maintained in DMEM (Lonza, USA) containing 10% FBS while myeloid leukemia cell line (NFS-60), liver cancer cell line (HepG-2) and prostate cancer cell line (PC-3) were cultured in RPMI-1640 (Lonza, USA) supplemented with 10% FBS. All cancer cells (5x10^3 cells/well) were seeded in sterile 96-well plates. […]
Caco-2, PC-3 and NFS-60 cell lines. […] The apoptosis-dependent anticancer effect was determined by quantification of annexin-stained apoptotic cells using the FITC signal detector (FL1) against the phycoerythrin emission signal detector (FL2). […]

[9] = test system: caspase 3/7 in HepG-2 cells; experiment: Caspase 3/7 activation assay (Apo-ONE kit); format: cell-based, human; conditions: caspase 3/7, relative to untreated HepG2 cells; mean ± SEM
Text: The percentage of caspase 3/7 activation was quantified using the Apo-ONE ® caspase 3/7 kit following the manufacturer’s instructions[27] (Supplementary Page S56).
It’s a fluorescence assay that measures caspase-3 and −7 activities. Caspase 3/7 activators are well known as apoptotic inducers.
Caspase 3/7 activation assay
The Apo-ONE ® caspase 3/7 kit following the manufacturer’s instructions was used for quantifying the percentage of caspase 3/7 activation. The fluorescence substrate present in the kit was cut by caspases to produce fluorescence signal. This signal was measured by the fluorescence omega microplate reader (BMG LabTech, Germany) at 490 nm excitation and 520 nm emission.
Data were expressed as mean ± standard error of the mean (SEM). Statistical significance was estimated by the multiple comparisons Tukey post-hoc analysis of variance (ANOVA) using the SPSS16 program. When p < 0.05, the differences were marked as statistically significant.
PIM-1 and PIM-2 kinase inhibitory activity
PIM-1 and PIM-2 kinase utilizing PIM-1 and PIM-2 Kinase Assay Kit – Promega Corporation catalog #V4032, following the manufacturer’s instructions 26 […]
Information Classification: General

How did the IC50 [1] turn out when `COc1cccc2c1C(=O)c1c(O)c3c(c(O)c1C2=O)C[C@@](O)(C(=O)CO)C[C@@H]3O[C@H]1C[C@H](N)[C@H](O)[C@H](C)O1` [Dox, doxorubicin, reference compound] was run?
Its IC50 is 0.0266 µM.

And the IC50 [2]?
The IC50 was 0.0504 µM.

And the IC50 [3]?
The IC50 was 0.0332 µM.

And the “total percentage of the apoptotic cell population, HepG-2” value [4]?
Its value is 39.265 ± 0.81%.

What about the “total percentage of the apoptotic cell population, Caco-2” value [5] of the same molecule?
Its value is 36.08 ± 0.23%.

And the “total percentage of the apoptotic cell population, PC-3” value [6]?
Its value is 34.59 ± 0.21%.

And the “total percentage of the apoptotic cell population, NFS-60” value [7]?
Its value is 37.89 ± 0.28%.

And the “apoptosis-dependent death / percentage of annexin-stained population cells” value [8]?
Its value is “less than 39%”.

What about the “Fold increase in caspase activity” value [9] of the same molecule?
Its value is 1.61 ± 0.088 fold.
